Measurements reported in patent US9284325B2, “Spectinamides as anti-tuberculosis agents” (UNIVERSITY OF TENNESSEE RESEARCH FOUNDATION, priority 2009, dated 2016).
Converted amounts (≈) assume the structure as drawn. Structures can show the parent of a compound that is named as a salt.

How the values were obtained:
[1] = tested on: Burkholderia cepacia ATCC 25416; experiment: MIC determination by microbroth dilution; assay type: cell-based; settings: ATCC25416, read-out: MIC B. cepcia
E. coli K12 = experiment: MIC determination by microbroth dilution; assay type: cell-based, Escherichia coli; settings: Escherichia coli, K12
E. coli ribosomes = assay type: biochemical; settings: for IC50, 50% inhibition of luciferase biosynthesis in S30 assay: E. coli S30 transcription/translation assay
[2] = tested on: Klebsiella pneumoniae ATCC 33495; experiment: MIC determination by microbroth dilution; assay type: cell-based; settings: ATCC33495
[3] = tested on: Acinetobacter baumannii ATCC 19606; experiment: MIC determination by microbroth dilution; assay type: cell-based; settings: ATCC19606
[4] = tested on: Proteus mirabilis ATCC 25933; experiment: MIC determination by microbroth dilution; assay type: cell-based; settings: ATCC25933
M. tuberculosis H37Rv = experiment: MIC determination by microbroth dilution, anti-tuberculosis activity; assay type: cell-based, Mycobacterium tuberculosis; settings: Mycobacterium tuberculosis, H37RV, 168 h; read-out: MIC
[5] = tested on: Strep. pyogenes ATCC 700294; experiment: MIC determination by microbroth dilution; assay type: cell-based, Streptococcus pyogenes; settings: Streptococcus pyogenes, ATCC700294, read-out: MIC S. pyogenes
[6] = tested on: Strenotrophomonas maltophilia ATCC 13637; experiment: MIC determination by microbroth dilution; assay type: cell-based
B. anthracis Sterne 34F2 = experiment: microbe, parasite or virus in culture; assay type: cell-based, Bacillus anthracis; settings: Bacillus anthracis, STERNE34F2, read-out: MIC B. anthracis 34F2
[7] = tested on: Proteus vulgaris ATCC 33420; experiment: MIC determination by microbroth dilution; assay type: cell-based; settings: ATCC33420
[8] = tested on: Strep. pneumoniae DAW27 or strain R6; experiment: MIC determination by microbroth dilution; assay type: cell-based, Streptococcus pneumoniae; settings: Streptococcus pneumoniae; Strep. pneumoniae DAW27 or strain R6 (for 1443-1544); read-out: MIC S. pneumoniae
E. faecalis ATCC 33186 = experiment: MIC determination by microbroth dilution; assay type: cell-based, Enterococcus faecalis; settings: Enterococcus faecalis, ATCC33186
[9] = tested on: S. aureus 8325 or strain ATCC 29213; experiment: MIC determination by microbroth dilution; assay type: cell-based, Staphylococcus aureus; settings: Staphylococcus aureus, ATCC29213; S. aureus 8325 or strain ATCC 29213 (for 1471-1544)
E. coli K12 ΔtolC = experiment: microbe, parasite or virus in culture; assay type: cell-based; settings: Escherichia coli, read-out: MIC E. coli K12 ΔtolC
P. aeruginosa PAO1 = experiment: MIC determination by microbroth dilution; assay type: cell-based, Pseudomonas aeruginosa; settings: Pseudomonas aeruginosa

| SMILES | MIC [1] [µg/mL] | MIC (E. coli K12) [µg/mL] | IC50, 50% inhibition of luciferase biosynthesis in S30 assay (E. coli ribosomes) [µg/mL] | MIC [2] [µg/mL] | MIC [3] [µg/mL] | MIC [4] [µg/mL] | MIC (M. tuberculosis H37Rv) [µg/mL] | MIC [5] [µg/mL] | MIC [6] [µg/mL] | MIC (B. anthracis Sterne 34F2) [µg/mL] | MIC [7] [µg/mL] | MIC [8] [µg/mL] | MIC (E. faecalis ATCC 33186) [µg/mL] | MIC [9] [µg/mL] | MIC (E. coli K12 ΔtolC) [µg/mL] | MIC (P. aeruginosa PAO1) [µg/mL] | relative inhibitory activity on luciferase production (E. coli ribosomes; tested at 0.66 and 6.6 μM, FIG. 5) |
| --- | --- | --- | --- | --- | --- | --- | --- | --- | --- | --- | --- | --- | --- | --- | --- | --- | --- |
| CN[C@@H]1[C@H](O)[C@H](NC)C2O[C@]3(O)C(OC2[C@H]1O)O[C@H](C)C[C@H]3NC(=O)Cc1nc2ccccc2o1 (stereo partly drawn) [Compound 1465, 3′-Dihydro-3′-deoxy-4(R)-(benzooxazol-2-yl)acetylamino spectinomycin trihydrobromide] | > 200 | > 200 | 0.50 | > 200 | > 200 | > 200 | 3.12 | 12.5 | > 200 | 100 | > 200 | 12.5 | 100 | > 200 | 12.5 | > 200 |  |
| CN[C@@H]1[C@H](O)[C@H](NC)C2O[C@]3(O)C(OC2[C@H]1O)O[C@H](C)C[C@H]3NC(=O)Cc1c[nH]cn1 (stereo partly drawn) [Compound 1466, 3′-Dihydro-3′-deoxy-4(R)-(1H-imidazol-4-yl)acetylamino spectinomycin tetradrobromide] | > 200 | 100 (≈ 227 µM) | 0.57 | > 200 | > 200 | > 200 | 6.25 (≈ 14.2 µM) | 25 (≈ 56.6 µM) | > 200 | > 200 | > 200 | 12.5 (≈ 28.3 µM) | > 200 | > 200 | 50 (≈ 113 µM) | > 200 |  |
| CN[C@@H]1[C@H](O)[C@H](NC)C2O[C@]3(O)C(OC2[C@H]1O)O[C@H](C)C[C@H]3NCc1ccco1 (stereo partly drawn) [Compound 1422, 3′-Dihydro-3′-deoxy-4(R)-furan-2yl-methylamino spectinomycin Trihydrochloride] | > 200 | 25 |  | > 200 | > 200 | > 200 | 200 | 200 | > 200 | 12.5 | > 200 | 50 | 12.5 | 25 | 12.5 | 25 | inhibited well |
| CN[C@@H]1[C@H](O)[C@H](NC)C2O[C@]3(O)C(OC2[C@H]1O)O[C@H](C)C[C@H]3NC(=O)Cc1csc(Nc2cccc(F)c2)n1 (stereo partly drawn) [Compound 1539, 3′-Dihydro-3′-deoxy-4(R)-(2-((3-fluorophenyl)amino)thiazol-4-yl)acetylamino spectinomycin tribromide] | > 200 | > 200 |  | > 200 | > 200 | > 200 | 6.25 | 3.1 | > 200 | > 200 | > 200 | 3.1 | 25 | 100 | 12.5 | > 200 |  |
| CN[C@@H]1[C@H](O)[C@H](NC)C2O[C@]3(O)C(OC2[C@H]1O)O[C@H](C)C[C@H]3NC(=O)Cc1ccc(-c2cccc(OC)c2)cn1 (stereo partly drawn) [Compound 1543, 3′-Dihydro-3′-deoxy-4(R)-(5-(3-methoxyphenyl)pyridin-2-yl)acetyl-amino spectinomycin tribromide] | > 200 | > 200 |  | > 200 | > 200 | > 200 | 6.25 | 6.25 | 200 | > 200 | > 200 | 3.1 | 12.5 | 100 | < 6.25 | > 200 |  |
